Test results published in patent US5583132A, “Sulfonylalkanoylamino hydroxyethylamino sulfamic acids useful as retroviral protease inhibitors” (priority 1995, dated 1996).

How the values were obtained:
HIV protease = molecular target: T1, HIV protease (Human immunodeficiency virus type 1 group M subtype B, UniProt P04585); assay: HIV protease enzyme assay; assay type: biochemical
T1 construct: HIV protease is diluted in the assay buffer to a final enzyme concentration of 12.3 nanomolar, based on a molecular weight of 10,780
Text: The compounds of the present invention are effective HIV protease inhibitors. Utilizing an enzyme assay as described below, the compounds set forth in the examples herein disclosed inhibited the HIV enzyme. The preferred compounds of the present invention and their calculated IC50 (inhibiting concentration 50%, i.e., the concentration at which the inhibitor compound reduces enzyme activity by 50%) values are shown in Table 17. The enzyme method is described below. The substrate is 2-Ile-Nle-Phe(p-NO2)-Gln-ArgNH2. The positive control is MVT-101 (Miller, M. et al, Science, 246, 1149 (1989)] The assay conditions are as follows:
20 mM sodium phosphate, pH 6.4
The above described substrate is dissolved in DMSO, then diluted 10 fold in assay buffer. Final substrate concentration in the assay is 80 μM.
HIV protease is diluted in the assay buffer to a final enzyme concentration of 12.3 nanomolar, based on a molecular weight of 10,780.
The final concentration of DMSO is 14% and the final concentration of glycerol is 18%. The test compound is dissolved in DMSO and diluted in DMSO to 10x the test concentration; 10 μl of the enzyme preparation is added, the materials mixed and then the mixture is incubated at ambient temperature for 15 minutes. The enzyme reaction is initiated by the addition of 40 μl of substrate. The increase in fluorescence is monitored at 4 time points (0, 8, 16 and 24 minutes) at ambient temperature. Each assay is carried out in duplicate wells.

in vitro = assay type: cell-based; conditions: human, cem cells
Method: Methods, 20, 309-321 (1988). Assays can be performed in 96-well tissue culture plates. […] Several wells receive culture medium without virus (uninfected control cells). […] Either azidothymidine (AZT) or dideoxyinosine (ddI) is included as a positive drug control. […] DMSO is added to all control wells at an appropriate concentration. […] To each sample is added 100 μl of 10% sodium dodecylsulfate in 0.01N HCl to lyse the cells, and samples are incubated overnight.

| SMILES | inhibition at 10 µM (HIV protease) [%] | other results |
| --- | --- | --- |
| CC(C)CN(C[C@@H](O)[C@H](Cc1ccccc1)NC(=O)OCc1ccccc1)S(=O)(=O)NCCOCc1ccccc1 [L] | 38 |  |
| CC(C)(C)NS(=O)(=O)N(C[C@@H](O)[C@H](Cc1ccccc1)NC(=O)OCc1ccccc1)C1CCCCC1 [K] | 60 |  |
| CC(C)CN(C[C@@H](O)[C@H](Cc1ccccc1)NC(=O)OCc1ccccc1)S(=O)(=O)Nc1ccccc1 [E] |  | CC50 at 168 h (in vitro): 7.5 µM |
| CC(C)CN(C[C@@H](O)[C@H](Cc1ccccc1)NC(=O)[C@H](C)CS(C)(=O)=O)S(=O)(=O)NC(C)(C)C [Example 14] |  | IC50 (HIV protease; Table 9, HIV protease enzyme assay, pH 6.4, substrate 80 μM): 0.14 µM |
